In US6737383B1, “Herbicidal oxadiazolidines” (priority 1999, dated 2004):

What was measured:
surinam grass = assay: Test B pre/postemergence surinam grass; assay type: in vivo, Brachiaria decumbens
How it was run: (§1)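 Test chemicals in a non-phytotoxic solvent mixture with surfactant were sprayed preemergence onto planted seeds and postemergence onto plants 2 to 18 cm tall (1- to 4-leaf stage). After twelve to sixteen days in a greenhouse, injury was visually rated against untreated controls from 0 (no effect) to 10 (complete control).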

blackgrass = assay: Test B pre/postemergence blackgrass; assay type: in vivo, Alopecurus myosuroides
How it was run: as §1

sugar beet = assay: Test B pre/postemergence sugar beet; assay type: in vivo, Beta vulgaris
How it was run: as §1

wild oat = assay: Test B pre/postemergence wild oat; assay type: in vivo, Avena fatua
How it was run: as §1

smallflower flatsedge = assay: Test B flood test smallflower flatsedge; assay type: in vivo, Cyperus difformis
How it was run: (§2)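 Plants were grown to the 2-leaf stage before treatment with test chemical, then held in a greenhouse for twelve to sixteen days. Injury was visually rated against untreated controls on a 0–10 scale, where 0 is no effect and 10 is complete control.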

rape = assay: Test B pre/postemergence rape; assay type: in vivo, Brassica napus
How it was run: as §1

giant foxtail = assay: Test B pre/postemergence giant foxtail; assay type: in vivo, Setaria faberii
How it was run: as §1

cocklebur = assay: Test B pre/postemergence cocklebur; assay type: in vivo, Xanthium strumarium
How it was run: as §1

soybean = assay: Test B pre/postemergence soybean; assay type: in vivo, Glycine max
How it was run: as §1

crabgrass = assay: Test B pre/postemergence crabgrass; assay type: in vivo, Digitaria sanguinalis
How it was run: as §1

wheat = assay: Test B pre/postemergence wheat; assay type: in vivo, Triticum aestivum
How it was run: as §1

rice = assay: Test B flood test rice; assay type: in vivo, Oryza sativa
How it was run: as §2

duck salad = assay: Test B flood test duck salad; assay type: in vivo, Heteranthera limosa
How it was run: as §2

pigweed = assay: Test B pre/postemergence pigweed; assay type: in vivo, Amaranthus retroflexus
How it was run: as §1

corn = assay: Test B pre/postemergence corn; assay type: in vivo, Zea mays
How it was run: as §1

velvetleaf = assay: Test B pre/postemergence velvetleaf; assay type: in vivo, Abutilon theophrasti
How it was run: as §1

[1] = Postemergence, Rate 125 g/ha, scale of 0 to 10 where 0 is no effect and 10 is complete control
[2] = Postemergence, Rate 250 g/ha, scale of 0 to 10, 0 is no effect, 10 is complete control
[3] = Postemergence, Rate 500 g/ha, scale of 0 to 10 where 0 is no effect and 10 is complete control
[4] = Postemergence, Rate 1000 g/ha, scale 0 to 10 (0 no effect, 10 complete control)
[5] = Preemergence, Rate 125 g/ha, scale of 0 to 10 where 0 is no effect and 10 is complete control
[6] = Preemergence, Rate 250 g/ha, scale 0 to 10 (0 no effect, 10 complete control)
[7] = Preemergence, Rate 500 g/ha, scale of 0 to 10 where 0 is no effect and 10 is complete control
[8] = Rate 1000 g/ha, Preemergence, scale 0 to 10 (0 no effect, 10 complete control)
[9] = Pre-emergence, Rate 1000 g/ha, scale 0 to 10 (0 no effect, 10 complete control)
[10] = Rate 125 g/ha, under heading Pre-emergence, flood test species, visual evaluation after twelve to sixteen days
[11] = Rate 250 g/ha, Pre-emergence (flood test species), scale 0 to 10, 0 is no effect, 10 is complete control
[12] = Rate 500 g/ha, Pre-emergence section of Table B, 0 to 10 scale (0 no effect, 10 complete control)

COC(=O)C(C)n1c(=O)on(C(=O)N(c2ccc(Cl)cc2)C(C)C)c1=O (stereo not drawn) [Compound 623]
4: Plant response rating, B. signalgrass (surinam grass; [8]) | Blackgrass plant response rating (blackgrass; [2])
1: Wheat plant response rating (wheat; [2]) | Wheat plant response rating (wheat; [4])
8: Plant response rating, Giant foxtail (giant foxtail; [6])
2: Plant response rating, B. signalgrass (surinam grass; [7]) | Plant response rating, Blackgrass (blackgrass; [8]) | Plant response rating, Sugarbeets (sugar beet; [7]) | Wild oats plant response rating (wild oat; [4]) | Plant response rating, Wild oats (wild oat; [7]) | Plant response rating, Wild oats (wild oat; [8]) | Plant response rating, Rape (rape; [7]) | Plant response rating, Rape (rape; [8]) | Giant foxtail plant response rating (giant foxtail; [4]) | Velvetleaf plant response rating (velvetleaf; [4])
9: Plant response rating, Giant foxtail (giant foxtail; [7]) | Plant response rating, Giant foxtail (giant foxtail; [8])
5: Redroot pigweed plant response rating (pigweed; [4]) | Plant response rating, Redroot pigweed (pigweed; [8])
0: Plant response rating, B. signalgrass (surinam grass; [1]) | B. signalgrass plant response rating (surinam grass; [2]) | Plant response rating, B. signalgrass (surinam grass; [3]) | B. signalgrass plant response rating (surinam grass; [4]) | B. signalgrass plant response rating (surinam grass; [5]) | Plant response rating, B. signalgrass (surinam grass; [6]) | Blackgrass plant response rating (blackgrass; [5]) | Plant response rating, Blackgrass (blackgrass; [6]) | Plant response rating, Sugarbeets (sugar beet; [1]) | Sugarbeets plant response rating (sugar beet; [2]) | Sugarbeets plant response rating (sugar beet; [4]) | Sugarbeets plant response rating (sugar beet; [5]) | Plant response rating, Sugarbeets (sugar beet; [6]) | Plant response rating, Wild oats (wild oat; [1]) | Wild oats plant response rating (wild oat; [2]) | Wild oats plant response rating (wild oat; [5]) | Plant response rating, Wild oats (wild oat; [6]) | S. Flatsedge plant response rating (smallflower flatsedge; [9]) | S. Flatsedge plant response rating (0 to 10 scale, 0 is no effect, 10 is complete control) (smallflower flatsedge; [10]) | S. Flatsedge plant response rating (smallflower flatsedge; [11]) | S. Flatsedge plant response rating (smallflower flatsedge; [12]) | Plant response rating, Rape (rape; [1]) | Rape plant response rating (rape; [2]) | Plant response rating, Rape (rape; [3]) | Rape plant response rating (rape; [4]) | Rape plant response rating (rape; [5]) | Plant response rating, Rape (rape; [6]) | Plant response rating, Giant foxtail (giant foxtail; [1]) | Giant foxtail plant response rating (giant foxtail; [2]) | Plant response rating, Giant foxtail (giant foxtail; [3]) | Plant response rating, Cocklebur (cocklebur; [1]) | Cocklebur plant response rating (cocklebur; [2]) | Plant response rating, Cocklebur (cocklebur; [3]) | Cocklebur plant response rating (cocklebur; [4]) | Cocklebur plant response rating (cocklebur; [5]) | Plant response rating, Cocklebur (cocklebur; [6]) | Plant response rating, Cocklebur (cocklebur; [7]) | Plant response rating, Cocklebur (cocklebur; [8]) | Plant response rating, Soybean (soybean; [1]) | Soybean plant response rating (soybean; [2]) | Soybean plant response rating (soybean; [5]) | Plant response rating, Soybean (soybean; [6]) | Plant response rating, Soybean (soybean; [7]) | Plant response rating, Soybean (soybean; [8]) | Plant response rating, Crabgrass (crabgrass; [1]) | Crabgrass plant response rating (crabgrass; [2]) | Plant response rating, Crabgrass (crabgrass; [3]) | Crabgrass plant response rating (crabgrass; [5]) | Plant response rating, Crabgrass (crabgrass; [6]) | Plant response rating, Crabgrass (crabgrass; [8]) | Plant response rating, Wheat (wheat; [1]) | Wheat plant response rating (wheat; [5]) | Plant response rating, Wheat (wheat; [6]) | Plant response rating, Wheat (wheat; [7]) | Rice plant response rating (rice; [9]) | Rice plant response rating (0 to 10 scale, 0 is no effect, 10 is complete control) (rice; [10]) | Rice plant response rating (rice; [11]) | Rice plant response rating (rice; [12]) | Ducksalad plant response rating (duck salad; [9]) | Ducksalad plant response rating (0 to 10 scale, 0 is no effect, 10 is complete control) (duck salad; [10]) | Ducksalad plant response rating (duck salad; [11]) | Ducksalad plant response rating (duck salad; [12]) | Plant response rating, Redroot pigweed (pigweed; [1]) | Redroot pigweed plant response rating (pigweed; [2]) | Redroot pigweed plant response rating (pigweed; [5]) | Plant response rating, Redroot pigweed (pigweed; [6]) | Plant response rating, Redroot pigweed (pigweed; [7]) | Plant response rating, Corn (corn; [1]) | Corn plant response rating (corn; [2]) | Plant response rating, Corn (corn; [3]) | Corn plant response rating (corn; [4]) | Corn plant response rating (corn; [5]) | Plant response rating, Corn (corn; [6]) | Plant response rating, Corn (corn; [7]) | Plant response rating, Corn (corn; [8]) | Plant response rating, Velvetleaf (velvetleaf; [1]) | Velvetleaf plant response rating (velvetleaf; [2]) | Velvetleaf plant response rating (velvetleaf; [5]) | Plant response rating, Velvetleaf (velvetleaf; [6]) | Plant response rating, Velvetleaf (velvetleaf; [7]) | Plant response rating, Velvetleaf (velvetleaf; [8])
6: Plant response rating, Blackgrass (blackgrass; [3])
3: Plant response rating, Blackgrass (blackgrass; [1]) | Soybean plant response rating (soybean; [4]) | Crabgrass plant response rating (crabgrass; [4]) | Plant response rating, Wheat (wheat; [8])
7: Blackgrass plant response rating (blackgrass; [4]) | Plant response rating, Sugarbeets (sugar beet; [8]) | Giant foxtail plant response rating (giant foxtail; [5])
